Our source for the IC50 values is ChEMBL document CHEMBL2331208, “Steroids glycosylated with both D- and L-arabinoses from the South China Sea gorgonian Dichotella gemmacea” (J Nat Prod, 2013).

Molecules are shown by their SMILES. Structures can show the parent of a compound that is named as a salt.

In one experiment the test system is MG-63. In words: Cytotoxicity against human MG63 cells by MTT assay. The format is functional, cell-based.
In another experiment the test system is A549. The experiment is described as follows: Cytotoxicity against human A549 cells by MTT assay. The format is functional, cell-based. On the technique in general: Formazan colour is commonly taken as a measure of viable cells.

For orientation: IC50 means the concentration that gives 50% inhibition. A high value points to weaker potency in that assay.

With `COc1cccc2c1C(=O)c1c(O)c3c(c(O)c1C2=O)C[C@@](O)(C(=O)CO)C[C@@H]3O[C@H]1C[C@H](N)[C@H](O)[C@H](C)O1` [DOXORUBICIN HYDROCHLORIDE], in the experiment with MG-63, inhibition was half-maximal at 3.4 µM (IC50). `CC(=O)OC(C)(C)CCC[C@@H](C)[C@H]1CC[C@H]2[C@@H]3CC=C4C[C@@H](O[C@H]5OC[C@H](O)[C@H](O)[C@H]5O)CC[C@]4(CO)[C@H]3CC[C@]12C` [JUNCEELLOSIDE C]: the 50% inhibitory concentration (IC50) stood at 11.4 µM in the experiment on A549 and 17.2 µM in the experiment with MG-63. Consider `C=C(CC[C@@H](C)[C@H]1CC[C@H]2[C@@H]3CC=C4C[C@@H](O[C@H]5OC[C@H](O)[C@H](O)[C@H]5O)CC[C@]4(CO)[C@H]3CC[C@]12C)C(C)(C)OC(C)=O` [JUNCEELLOSIDE E], for which the IC50 in the experiment with A549 and in the experiment with MG-63 was over 50 µM in each case. Regarding `CC(=O)OC(C)(C)C/C=C/[C@@H](C)[C@H]1CC[C@H]2[C@@H]3CC=C4C[C@@H](O[C@@H]5OC[C@@H](O)[C@@H](O)[C@@H]5O)CC[C@]4(CO)[C@H]3CC[C@]12C` [JUNCEELLOSIDE F], the IC50 with A549 is over 50 µM; with MG-63, 23 µM.

For `CC(=O)O[C@@H]1[C@H](O[C@H]2CC[C@@]3(CO)C(=CC[C@@H]4[C@@H]3CC[C@]3(C)[C@@H]([C@H](C)CCCC(C)(C)OC(C)=O)CC[C@@H]43)C2)OC[C@@H](O)[C@H]1O` [JUNCEELLOSIDE G], the values for the IC50 in the experiment on A549 and in the experiment on MG-63 were 13.9 µM and 23 µM, respectively.
